Test results as given in patent publication US20230150970A1, “AMINOPYRIMIDINE DERIVATIVES AND THEIR USE AS ARYL HYDROCARBON RECEPTOR MODULATORS” (DONG-A ST CO., LTD., priority 2020, published 2023).

The compounds below were run against T1, AhR (Homo sapiens, UniProt P35869) (assay: In Vitro Assay 1: XRE-luciferase reporter assay, antagonism in human cell line (HepG2)). Conditions: Assay 1: AhR-Luc Human Antagonism (IC50, nM), values marked *: kynurenine 50 μM, 6 hours.
T1 sequence (P35869 11-848): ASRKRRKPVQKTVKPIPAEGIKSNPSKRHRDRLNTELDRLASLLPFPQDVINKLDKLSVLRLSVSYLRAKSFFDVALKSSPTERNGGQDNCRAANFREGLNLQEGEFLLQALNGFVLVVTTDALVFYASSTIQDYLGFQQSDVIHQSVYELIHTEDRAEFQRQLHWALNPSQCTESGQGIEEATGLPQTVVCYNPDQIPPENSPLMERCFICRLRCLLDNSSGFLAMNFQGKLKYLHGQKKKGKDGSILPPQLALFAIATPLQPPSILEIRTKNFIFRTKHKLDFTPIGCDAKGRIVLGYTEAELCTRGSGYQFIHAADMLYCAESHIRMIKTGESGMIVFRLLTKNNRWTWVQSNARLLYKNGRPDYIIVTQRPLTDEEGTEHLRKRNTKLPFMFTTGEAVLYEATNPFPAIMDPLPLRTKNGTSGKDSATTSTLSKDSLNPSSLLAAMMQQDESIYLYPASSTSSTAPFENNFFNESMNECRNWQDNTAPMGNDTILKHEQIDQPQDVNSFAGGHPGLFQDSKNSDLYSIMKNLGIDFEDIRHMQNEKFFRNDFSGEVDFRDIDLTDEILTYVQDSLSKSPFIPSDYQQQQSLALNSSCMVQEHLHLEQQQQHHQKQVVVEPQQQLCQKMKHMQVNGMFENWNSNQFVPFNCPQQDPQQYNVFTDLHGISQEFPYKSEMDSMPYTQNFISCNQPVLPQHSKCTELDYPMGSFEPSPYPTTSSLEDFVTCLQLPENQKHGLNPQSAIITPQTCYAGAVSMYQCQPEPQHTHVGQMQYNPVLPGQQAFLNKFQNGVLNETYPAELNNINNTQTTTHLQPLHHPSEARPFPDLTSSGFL

SMILES	IC50 [nM]
CCOC(=O)CC1CCN(c2cc(-c3ccc(Cl)cc3)nc(-c3cccnc3)n2)CC1 [Example 161, ethyl 2-(1-(6-(4-chlorophenyl)-2-(pyridin-3-yl)pyrimidin-4-yl)piperidin-4-yl)acetate]	> 1000
O[C@H]1CCCN(c2cc(-c3ccc(Cl)cc3)nc(-c3cccnc3)n2)C1 [Example 163, (S)-1-(6-(4-chlorophenyl)-2-(pyridin-3-yl)pyrimidin-4-yl)piperidin-3-ol]	10 to 100
CN(C)C1CCN(c2cc(-c3ccc(Cl)cc3)nc(-c3cccnc3)n2)C1 (centres unmarked) [Example 164, 1-(6-(4-chlorophenyl)-2-(pyridin-3-yl)pyrimidin-4-yl)-N,N-dimethylpyrrolidin-3-amine]	100 to 1000
O=C1CCN(c2cc(-c3ccc(Cl)cc3)nc(-c3cccnc3)n2)CC1 [Example 166, 1-(6-(4-chlorophenyl)-2-(pyridin-3-yl)pyrimidin-4-yl)piperidin-4-one]	10 to 100
CN(c1cc(-c2ccc(Cl)cc2)nc(-c2cccnc2)n1)C1CCNCC1 [Example 167, 6-(4-chlorophenyl)-N-methyl-N-(piperidin-4-yl)-2-(pyridin-3-yl)pyrimidin-4-amine]	> 1000
CN1CCCCC1CCNc1cc(-c2ccc(Cl)cc2)nc(-c2cccnc2)n1 (centres unmarked) [Example 168, 6-(4-chlorophenyl)-N-(2-(1-methylpiperidin-2-yl)ethyl)-2-(pyridin-3-yl)pyrimidin-4-amine]	> 1000
CC(Nc1cc(-c2ccc(Cl)cc2)nc(-c2cccnc2)n1)C1CCN(C)CC1 (centres unmarked) [Example 169, 6-(4-chlorophenyl)-N-(1-(1-methylpiperidin-4-yl)ethyl)-2-(pyridin-3-yl)pyrimidin-4-amine]	> 1000
COC(=O)CN1CCC(Nc2cc(-c3ccc(Cl)cc3)nc(-c3cccnc3)n2)CC1 [Example 171, methyl 2-(4-((6-(4-chlorophenyl)-2-(pyridin-3-yl)pyrimidin-4-yl)amino)piperidin-1-yl)acetate]	10 to 100
CC(OC(=O)C(F)(F)F)C1CCN(c2cc(-c3ccc(Cl)cc3)nc(-c3cccnc3)n2)CC1 (centres unmarked) [Example 172, 1-(1-(6-(4-chlorophenyl)-2-(pyridin-3-yl)pyrimidin-4-yl)piperidin-4-yl)ethyl 2,2,2-trifluoroacetate]	< 10
CN1CCCC(Nc2cc(-c3ccc(Cl)cc3)nc(-c3cccnc3)n2)C1 (centres unmarked) [Example 173, 6-(4-chlorophenyl)-N-(1-methylpiperidin-3-yl)-2-(pyridin-3-yl)pyrimidin-4-amine]	100 to 1000
Cn1cc(-c2nc(N[C@@H]3CCC[C@@H]3O)cc(-c3ccc(Cl)cc3)n2)cn1 [Example 174, (1S,2R)-2-((6-(4-chlorophenyl)-2-(1-methyl-1H-pyrazol-4-yl)pyrimidin-4-yl)amino)cyclopentan-1-ol]	100 to 1000
Cn1cc(-c2nc(-c3ccc(Cl)cc3)cc(N3CCC(CCCO)CC3)n2)cn1 [Example 179, 3-(1-(6-(4-chlorophenyl)-2-(1-methyl-1H-pyrazol-4-yl)pyrimidin-4-yl)piperidin-4-yl)propan-1-ol]	100 to 1000
CC1CCN(c2cc(-c3ccc(Cl)cc3)nc(-c3cnn(C)c3)n2)CC1 [Example 180, 4-(4-chlorophenyl)-2-(1-methyl-1H-pyrazol-4-yl)-6-(4-methylpiperidin-1-yl)pyrimidine]	> 1000
Cn1cc(-c2nc(-c3ccc(Cl)cc3)cc(N3CCC(C#N)CC3)n2)cn1 [Example 184, 1-(6-(4-chlorophenyl)-2-(1-methyl-1H-pyrazol-4-yl)pyrimidin-4-yl)piperidine-4-carbonitrile]	100 to 1000
Cn1cc(-c2nc(-c3ccc(Cl)cc3)cc(N3CCC[C@@H](CO)C3)n2)cn1 [Example 185, (R)-(1-(6-(4-chlorophenyl)-2-(1-methyl-1H-pyrazol-4-yl)pyrimidin-4-yl)piperidin-3-yl)methanol]	100 to 1000
Cn1cc(-c2nc(-c3ccc(Cl)cc3)cc(N3CC[C@@H](O)C3)n2)cn1 [Example 186, (R)-1-(6-(4-chlorophenyl)-2-(1-methyl-1H-pyrazol-4-yl)pyrimidin-4-yl)pyrrolidin-3-ol]	> 1000
CC[C@@H](Nc1cc(-c2ccc(Cl)cc2)nc(-c2cccnc2)n1)[C@@H](C)O [Example 192, (2R,3R)-3-((6-(4-chlorophenyl)-2-(pyridin-3-yl)pyrimidin-4-yl)amino)pentan-2-ol]	100 to 1000
F[C@H]1CCN(c2cc(-c3ccc(Cl)cc3)nc(-c3cccnc3)n2)C1 [Example 196, (S)-4-(4-chlorophenyl)-6-(3-fluoropyrrolidin-1-yl)-2-(pyridin-3-yl)pyrimidine]	10 to 100

Second part, the compound after the results:

IC50 [nM]	SMILES
> 1000	CN(C)CCC1CCCN1c1cc(-c2ccc(Cl)cc2)nc(-c2cccnc2)n1 (centres unmarked) [Example 165, 2-(1-(6-(4-chlorophenyl)-2-(pyridin-3-yl)pyrimidin-4-yl)pyrrolidin-2-yl)-N,N-dimethylethan-1-amine]
10 to 100	Cn1cc(-c2nc(-c3ccc(Cl)cc3)cc(N3CCC[C@@H](O)C3)n2)cn1 [Example 175, (R)-1-(6-(4-chlorophenyl)-2-(1-methyl-1H-pyrazol-4-yl)pyrimidin-4-yl)piperidin-3-ol]
> 1000	Cn1cc(-c2nc(-c3ccc(Cl)cc3)cc(N3CCC(O)CC3)n2)cn1 [Example 176, 1-(6-(4-chlorophenyl)-2-(1-methyl-1H-pyrazol-4-yl)pyrimidin-4-yl)piperidin-4-ol]
10 to 100	Cn1cc(-c2nc(-c3ccc(Cl)cc3)cc(N3CCC(CO)CC3)n2)cn1 [Example 177, (1-(6-(4-chlorophenyl)-2-(1-methyl-1H-pyrazol-4-yl)pyrimidin-4-yl)piperidin-4-yl)methanol]
100 to 1000	Cn1cc(-c2nc(-c3ccc(Cl)cc3)cc(N3CCC(CCO)CC3)n2)cn1 [Example 178, 2-(1-(6-(4-chlorophenyl)-2-(1-methyl-1H-pyrazol-4-yl)pyrimidin-4-yl)piperidin-4-yl)ethan-1-ol]
100 to 1000	CN1CCN(c2cc(-c3ccc(Cl)cc3)nc(-c3cnn(C)c3)n2)CC1 [Example 181, 4-(4-chlorophenyl)-2-(1-methyl-1H-pyrazol-4-yl)-6-(4-methylpiperazin-1-yl)pyrimidine]
100 to 1000	Cn1cc(-c2nc(-c3ccc(Cl)cc3)cc(N3CCN(CCO)CC3)n2)cn1 [Example 182, 2-(4-(6-(4-chlorophenyl)-2-(1-methyl-1H-pyrazol-4-yl)pyrimidin-4-yl)piperazin-1-yl)ethan-1-ol]
100 to 1000	Cn1cc(-c2nc(-c3ccc(Cl)cc3)cc(N3CC[C@H](O)C3)n2)cn1 [Example 183, (S)-1-(6-(4-chlorophenyl)-2-(1-methyl-1H-pyrazol-4-yl)pyrimidin-4-yl)pyrrolidin-3-ol]
100 to 1000	Cn1cc(-c2nc(N[C@@H]3CC[C@H](O)C3)cc(-c3ccc(Cl)cc3)n2)cn1 [Example 187, (1S,3R)-3-((6-(4-chlorophenyl)-2-(1-methyl-1H-pyrazol-4-yl)pyrimidin-4-yl)amino)cyclopentan-1-ol]
100 to 1000	CC[C@H](CO)Nc1cc(-c2ccc(Cl)cc2)nc(-c2cnn(C)c2)n1 [Example 188, (R)-2-((6-(4-chlorophenyl)-2-(1-methyl-1H-pyrazol-4-yl)pyrimidin-4-yl)amino)butan-1-ol]
100 to 1000	Cn1cc(-c2nc(N[C@H]3CC[C@H](O)CC3)cc(-c3ccc(Cl)cc3)n2)cn1 [Example 189, Trans-4-((6-(4-chlorophenyl)-2-(1-methyl-1H-pyrazol-4-yl)pyrimidin-4-yl)amino)cyclohexan-1-ol]
10 to 100	Clc1ccc(-c2cc(N3CCC4CCCOC4C3)nc(-c3cccnc3)n2)cc1 (centres unmarked) [Example 190, 7-(6-(4-chlorophenyl)-2-(pyridin-3-yl)pyrimidin-4-yl)octahydro-2H-pyrano[2,3-c]pyridine]
10 to 100	OC1CCOC2CN(c3cc(-c4ccc(Cl)cc4)nc(-c4cccnc4)n3)CCC12 (centres unmarked) [Example 191, 7-(6-(4-chlorophenyl)-2-(pyridin-3-yl)pyrimidin-4-yl)octahydro-2H-pyrano[2,3-c]pyridin-4-ol]
100 to 1000	CN1CCC(CNc2cc(-c3ccc(Cl)cc3)nc(-c3cccnc3)n2)CC1 [Example 193, 6-(4-chlorophenyl)-N-((1-methylpiperidin-4-yl)methyl)-2-(pyridin-3-yl)pyrimidin-4-amine]
< 10	O[C@@H]1CCN(c2cc(-c3ccc(Cl)cc3)nc(-c3cccnc3)n2)C1 [Example 194, (R)-1-(6-(4-chlorophenyl)-2-(pyridin-3-yl)pyrimidin-4-yl)pyrrolidin-3-ol]
> 1000	COC[C@@H]1CCCN1Nc1cc(-c2ccc(Cl)cc2)nc(-c2cccnc2)n1 [Example 195, (S)-6-(4-chlorophenyl)-N-(2-(methoxymethyl)pyrrolidin-1-yl)-2-(pyridin-3-yl)pyrimidin-4-amine]
> 1000	FC(F)(F)C1CCCN1c1cc(-c2ccc(Cl)cc2)nc(-c2cccnc2)n1 (centres unmarked) [Example 197, 4-(4-chlorophenyl)-2-(pyridin-3-yl)-6-(2-(trifluoromethyl)pyrrolidin-1-yl)pyrimidine]
